Key:
[1] = target: T1, TLR7 (Homo sapiens, UniProt Q9NYK1); experiment: NF-kB reporter HEK293 cells expressing human TLR7 (agonism; lowest active concentration); type: cell-based
T1 construct: HEK-Blue-hTLR7 reporter cells
T1 sequence (Q9NYK1 27-1049): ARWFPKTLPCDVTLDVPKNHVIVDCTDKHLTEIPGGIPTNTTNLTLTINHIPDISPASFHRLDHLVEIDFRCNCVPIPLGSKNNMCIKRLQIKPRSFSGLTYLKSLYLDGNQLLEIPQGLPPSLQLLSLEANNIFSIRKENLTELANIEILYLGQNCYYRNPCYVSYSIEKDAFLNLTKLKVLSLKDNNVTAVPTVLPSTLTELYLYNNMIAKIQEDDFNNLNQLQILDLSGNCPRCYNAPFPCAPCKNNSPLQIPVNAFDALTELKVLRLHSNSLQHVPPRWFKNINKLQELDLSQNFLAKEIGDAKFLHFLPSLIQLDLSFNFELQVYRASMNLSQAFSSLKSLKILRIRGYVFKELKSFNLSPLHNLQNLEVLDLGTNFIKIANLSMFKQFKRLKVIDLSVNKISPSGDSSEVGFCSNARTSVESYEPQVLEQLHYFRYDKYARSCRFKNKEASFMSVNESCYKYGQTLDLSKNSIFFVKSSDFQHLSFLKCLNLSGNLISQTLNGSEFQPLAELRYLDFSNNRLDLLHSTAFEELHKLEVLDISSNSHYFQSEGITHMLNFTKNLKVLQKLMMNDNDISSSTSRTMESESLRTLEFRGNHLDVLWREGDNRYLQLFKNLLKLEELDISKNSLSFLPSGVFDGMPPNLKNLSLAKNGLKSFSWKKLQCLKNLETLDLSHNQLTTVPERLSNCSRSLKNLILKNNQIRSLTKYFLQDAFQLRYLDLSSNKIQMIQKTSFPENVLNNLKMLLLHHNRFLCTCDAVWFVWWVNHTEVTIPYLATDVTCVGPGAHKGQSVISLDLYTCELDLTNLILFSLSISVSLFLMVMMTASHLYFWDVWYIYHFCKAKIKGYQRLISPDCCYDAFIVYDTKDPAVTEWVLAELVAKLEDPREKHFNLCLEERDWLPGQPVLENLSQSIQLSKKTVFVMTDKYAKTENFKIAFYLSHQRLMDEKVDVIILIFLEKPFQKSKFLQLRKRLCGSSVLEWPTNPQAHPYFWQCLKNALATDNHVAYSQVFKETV

[2] = target: T2, TLR7 (Mus musculus, UniProt P58681); experiment: NF-kB reporter HEK293 cells expressing murine TLR7 (agonism; lowest active concentration); type: cell-based
T2 construct: HEK-Blue-mTLR7 reporter cells
T2 sequence (P58681 27-1050): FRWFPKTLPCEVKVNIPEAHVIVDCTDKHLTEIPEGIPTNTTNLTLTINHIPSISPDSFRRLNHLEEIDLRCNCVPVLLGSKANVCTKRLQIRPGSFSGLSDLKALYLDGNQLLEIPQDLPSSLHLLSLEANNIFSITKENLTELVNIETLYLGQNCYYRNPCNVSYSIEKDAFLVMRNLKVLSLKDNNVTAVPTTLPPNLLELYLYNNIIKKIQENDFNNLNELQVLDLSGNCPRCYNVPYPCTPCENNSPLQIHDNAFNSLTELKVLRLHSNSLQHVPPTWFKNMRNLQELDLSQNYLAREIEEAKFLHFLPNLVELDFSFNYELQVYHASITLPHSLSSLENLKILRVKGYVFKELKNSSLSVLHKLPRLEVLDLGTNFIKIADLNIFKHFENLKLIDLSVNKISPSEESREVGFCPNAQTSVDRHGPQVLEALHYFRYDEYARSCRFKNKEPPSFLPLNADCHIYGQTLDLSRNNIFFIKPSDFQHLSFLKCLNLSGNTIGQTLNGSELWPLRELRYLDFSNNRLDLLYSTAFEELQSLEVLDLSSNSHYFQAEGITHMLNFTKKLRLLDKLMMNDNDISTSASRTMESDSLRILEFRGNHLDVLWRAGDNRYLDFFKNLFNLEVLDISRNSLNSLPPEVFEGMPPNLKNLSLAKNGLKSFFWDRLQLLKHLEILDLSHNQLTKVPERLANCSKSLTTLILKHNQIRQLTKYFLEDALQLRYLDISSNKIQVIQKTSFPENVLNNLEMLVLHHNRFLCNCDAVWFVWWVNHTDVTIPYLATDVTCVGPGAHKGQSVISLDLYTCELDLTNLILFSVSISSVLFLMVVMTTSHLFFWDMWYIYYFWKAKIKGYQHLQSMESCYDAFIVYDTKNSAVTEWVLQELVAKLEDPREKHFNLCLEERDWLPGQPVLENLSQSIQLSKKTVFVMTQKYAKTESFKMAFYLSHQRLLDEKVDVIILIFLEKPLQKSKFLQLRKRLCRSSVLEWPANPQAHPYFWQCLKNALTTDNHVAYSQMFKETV

CC(C)Cn1cnc2c(N)nc3ccccc3c21 [imiquimod]
NF-kB reporter HEK293 cells expressing human TLR7 (agonism); lowest active concen [1]: 4.16 µM | NF-kB reporter HEK293 cells expressing murine TLR7 (agonism); lowest active conce [2]: 4.16 µM

— PMC5552358, “Imidazoquinoxaline anticancer derivatives and imiquimod interact with tubulin: Characterization of molecular microtubule inhibiting mechanisms in correlation with cytotoxicity” (PLoS ONE, 2017)
